# Data reported in patent US10689377B2 (Mirati Therapeutics, Inc., priority 2017, dated 2020).
# pIC50: −log10 of the molar value.
# Target: KRas G12C (Homo sapiens, UniProt P01116, G12C)
# Assay: Cellular inhibition of KRas G12C measured by Phospho-ERK in NCI-H358 cells
# Assay type: cell-based
# Conditions: pERK(Thr202/Tyr204) normalized with GAPDH, NCI-H358 cells, 3 hours; read-out: IC50
# In short: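 Following 8-12 h attachment, NCI-H358 cells got serially diluted compound (0.5% DMSO) for 3 hours. Cells were then fixed, permeabilized with cold methanol, and stained for pERK(Thr202/Tyr204) and GAPDH. Ratios were converted to percent of DMSO control, with IC50 obtained by four-parameter regression.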
# Sequence of KRas G12C (P01116 1-188 isoform P01116-2 G12C): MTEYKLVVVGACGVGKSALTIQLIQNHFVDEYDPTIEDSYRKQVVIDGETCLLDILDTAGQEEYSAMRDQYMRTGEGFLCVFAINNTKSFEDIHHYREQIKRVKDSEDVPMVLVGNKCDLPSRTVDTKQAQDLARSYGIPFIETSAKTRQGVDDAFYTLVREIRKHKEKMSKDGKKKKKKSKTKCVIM
row,Structure (SMILES),pIC50
1,"C=CC(=O)N1CCN(c2nc(OC[C@H]3CN(C)CCN3)nc3c2CCN(c2cccc4ccccc24)C3)CC1CC#N (stereo partly drawn) [Example 224, 2-(1-acryloyl-4-(2-(((R)-4-methylpiperazin-2-yl)methoxy)-7-(naphthalen-1-yl)-5,6,7,8-tetrahydropyrido[3,4-d]pyrimidin-4-yl)piperazin-2-yl)acetonitrile]",6.00 to 10.00
2,C=CC(=O)N1CCN(c2nc(OC[C@@H]3CCCN3C)nc3c2CCN(c2cc(F)ccc2OC(F)(F)F)C3)CC1CC#N (stereo partly shown) [Example 225],6.00 to 10.00
3,"C=CC(=O)N1CCN(c2nc(OC[C@@H]3CCCN3C)nc3c2CCN(c2cccnc2C(F)(F)F)C3)CC1CC#N (stereo partly drawn) [Example 226, 2-(1-acryloyl-4-(2-(((S)-1-methylpyrrolidin-2-yl)methoxy)-7-(2-(trifluoromethyl)pyridin-3-yl)-5,6,7,8-tetrahydropyrido[3,4-d]pyrimidin-4-yl)piperazin-2-yl)acetonitrile]",6.00 to 10.00
4,"C=CC(=O)N1CCN(c2nc(OC[C@@H]3CCCN3C)nc3c2CCN(c2ccccc2F)C3)CC1CC#N (stereo partly drawn) [Example 227, 2-(1-acryloyl-4-(7-(2-fluorophenyl)-2-(((S)-1-methylpyrrolidin-2-yl)methoxy)-5,6,7,8-tetrahydropyrido[3,4-d]pyrimidin-4-yl)piperazin-2-yl)acetonitrile]",6.00 to 10.00
5,"C=CC(=O)N1CCN(c2nc(OC[C@@H]3CCCN3C)nc3c2CCN(c2cccc(C)c2C)C3)CC1CC#N (stereo partly drawn) [Example 228, 2-(1-acryloyl-4-(7-(2,3-dimethylphenyl)-2-(((S)-1-methylpyrrolidin-2-yl)methoxy)-5,6,7,8-tetrahydropyrido[3,4-d]pyrimidin-4-yl)piperazin-2-yl)acetonitrile]",6.00 to 10.00
6,C=CC(=O)N1CCN(c2nc(OC[C@@H]3CCCN3C)nc3c2CCN(c2ccccc2Cl)C3)CC1CC#N (stereo partly shown) [Example 229],6.00 to 10.00
7,C=CC(=O)N1CCN(c2nc(OC[C@@H]3CCCN3C)nc3c2CCN(c2cccc(F)c2C(F)(F)F)C3)CC1CC#N (stereo partly shown) [Example 230],6.00 to 10.00
8,"C=CC(=O)N1CCN(c2nc(OCCCN3CCOCC3)nc3c2CCN(c2cc(O)cc(Cl)c2F)C3)CC1 [Example 232, 1-(4-(7-(3-chloro-2-fluoro-5-hydroxyphenyl)-2-(3-morpholinopropoxy)-5,6,7,8-tetrahydropyrido[3,4-d]pyrimidin-4-yl)piperazin-1-yl)prop-2-en-1-one]",< 6.00
9,"C=CC(=O)N1CCN(c2nc(OC[C@@H]3CCCN3CC)nc3c2CCN(c2cccc4ccccc24)C3)CC1CC#N (stereo partly drawn) [Example 233, 2-(1-acryloyl-4-(2-(((S)-1-ethylpyrrolidin-2-yl)methoxy)-7-(naphthalen-1-yl)-5,6,7,8-tetrahydropyrido[3,4-d]pyrimidin-4-yl)piperazin-2-yl)acetonitrile]",6.00 to 10.00
10,"C=CC(=O)N1CCN(c2nc(OC[C@@H]3CCCN3C)nc3c2CCN(c2ccccc2C(F)(F)F)C3)C[C@@H]1CC#N [Example 237, 2-((S)-1-acryloyl-4-(2-(((S)-1-methylpyrrolidin-2-yl)methoxy)-7-(2-(trifluoromethyl)phenyl)-5,6,7,8-tetrahydropyrido [3,4-d]pyrimidin-4-yl)piperazin-2-yl)acetonitrile 2,2,2-trifluoroacetate]",6.00 to 10.00
11,C=CC(=O)N1CCN(c2nc(OC[C@@H]3CCCN3C)nc3c2CCN(c2c(C)ccc4cn[nH]c24)C3)CC1CC#N (stereo partly shown) [Example 238],6.00 to 10.00
12,"C=CC(=O)N1CCN(c2nc(OC[C@@H]3CCCN3C)nc3c2CCN(c2ccncc2C(F)(F)F)C3)CC1CC#N (stereo partly drawn) [Example 239, 2-(1-acryloyl-4-(2-(((S)-1-methylpyrrolidin-2-yl)methoxy)-7-(3-(trifluoromethyl)pyridin-4-yl)-5,6,7,8-tetrahydropyrido[3,4-d]pyrimidin-4-yl)piperazin-2-yl)acetonitrile]",< 6.00
13,"C=CC(=O)N1CCN(c2nc(OC[C@@H]3CCCN3C)nc3c2CCN(c2ccccc2CC(F)(F)F)C3)CC1CC#N (stereo partly drawn) [Example 240, 2-(1-acryloyl-4-(2-(((S)-1-methylpyrrolidin-2-yl)methoxy)-7-(2-(2,2,2-trifluoroethyl)phenyl)-5,6,7,8-tetrahydropyrido[3,4-d]pyrimidin-4-yl)piperazin-2-yl)acetonitrile]",< 6.00
14,C=CC(=O)N1CCN(c2nc(OC[C@@H]3CCCN3C)nc3c2CCN(c2ncccc2C(F)(F)F)C3)CC1CC#N (stereo partly shown) [Example 241],< 6.00
15,"C=CC(=O)N1CCN(c2nc(OC[C@H]3CCCN3C)nc3c2CCN(c2c(C(F)(F)F)ccc4[nH]ncc24)C3)CC1CC#N (stereo partly drawn) [Example 243, 2-[4-[2-[[(2R)-1-methylpyrrolidin-2-yl]methoxy]-7-[5-(trifluoromethyl)-1H-indazol-4-yl]-6,8-dihydro-5H-pyrido[3,4-d]pyrimidin-4-yl]-1-prop-2-enoyl-piperazin-2-yl]acetonitrile]",6.00 to 10.00
16,"C=CC(=O)N1CCN(c2nc(OC[C@@H]3CCCN3C)nc3c2CCN(c2ccc(F)c4ccccc24)C3)CC1CC#N (stereo partly drawn) [Example 246, 2-[4-[7-(4-fluoro-1-naphthyl)-2-[[(2S)-1-methylpyrrolidin-2-yl]methoxy]-6,8-dihydro-5H-pyrido[3,4-d]pyrimidin-4-yl]-1-prop-2-enoyl-piperazin-2-yl] acetonitrile]",6.00 to 10.00
17,"C=CC(=O)N1CCN(c2nc(OC[C@@H]3CCCN3C)nc3c2CCN(c2cccc4cccnc24)C3)CC1CC#N (stereo partly drawn) [Example 247, 2-(1-acryloyl-4-(2-(((S)-1-methylpyrrolidin-2-yl)methoxy)-7-(quinolin-8-yl)-5,6,7,8-tetrahydropyrido[3,4-d]pyrimidin-4-yl)piperazin-2-yl)acetonitrile]",< 6.00
18,"C=CC(=O)N1CCN(c2nc(OC[C@@H]3CCCN3C)nc3c2CCN(c2c(Cl)ccc4[nH]ncc24)C3)CC1 [Example 250, 1-[4-[7-(5-chloro-1H-indazol-4-yl)-2-[[(2S)-1-methylpyrrolidin-2-yl]methoxy]-6,8-dihydro-5H-pyrido[3,4-d]pyrimidin-4-yl]piperazin-1-yl]prop-2-en-1-one]",< 6.00
19,"C=CC(=O)N1CCN(c2nc(OC[C@@H]3CCCN3C)nc3c2CCN(c2cccc4ccc(Cl)cc24)C3)CC1CC#N (stereo partly drawn) [Example 253, 2-(1-acryloyl-4-(7-(7-chloronaphthalen-1-yl)-2-(((S)-1-methylpyrrolidin-2-yl)methoxy)-5,6,7,8-tetrahydropyrido[3,4-d]pyrimidin-4-yl)piperazin-2-yl)acetonitrile]",6.00 to 10.00
20,"C=CC(=O)N1CCN(c2nc(OC[C@@H]3CCCN3C)nc3c2CCN(c2cccc4c(F)cccc24)C3)CC1CC#N (stereo partly drawn) [Example 254, 2-[4-[7-(5-fluoro-1-naphthyl)-2-[[(2S)-1-methylpyrrolidin-2-yl]methoxy]-6,8-dihydro-5H-pyrido[3,4-d]pyrimidin-4-yl]-1-prop-2-enoyl-piperazin-2-yl]acetonitrile]",6.00 to 10.00
21,"C=CC(=O)N1CCN(c2nc(OC[C@@H]3CCCN3C)nc3c2CCN(c2cccc4ccc(OC)cc24)C3)CC1CC#N (stereo partly drawn) [Example 255, 2-[4-[7-(7-methoxy-1-naphthyl)-2-[[(2S)-1-methylpyrrolidin-2-yl]methoxy]-6,8-dihydro-5H-pyrido[3,4-d]pyrimidin-4-yl]-1-prop-2-enoyl-piperazin-2-yl]acetonitrile]",< 6.00
22,"C=CC(=O)N1CCN(c2nc(OC[C@@H]3CCCN3C)nc3c2CCN(c2cccc4ccccc24)C3)CC1COC (stereo partly drawn) [Example 256, 1-(2-(methoxymethyl)-4-(2-(((S)-1-methylpyrrolidin-2-yl)methoxy)-7-(naphthalen-1-yl)-5,6,7,8-tetrahydropyrido[3,4-d]pyrimidin-4-yl)piperazin-1-yl)prop-2-en-1-one]",< 6.00
23,"C=CC(=O)N1CCN(c2nc(OC[C@@H]3CCCN3C)nc3c2CCN(c2nccc4ccccc24)C3)CC1CC#N (stereo partly drawn) [Example 258, 2-[4-[7-(1-isoquinolyl)-2-[[(2S)-1-methylpyrrolidin-2-yl]methoxy]-6,8-dihydro-5H-pyrido[3,4-d]pyrimidin-4-yl]-1-prop-2-enoyl-piperazin-2-yl]acetonitrile]",< 6.00
24,"C=CC(=O)N1CCN(c2nc(OC[C@@H]3CCCN3C)nc3c2CCN(c2cccc4cc(F)ccc24)C3)CC1CC#N (stereo partly drawn) [Example 259, 2-[4-[7-(6-fluoro-1-naphthyl)-2-[[(2S)-1-methylpyrrolidin-2-yl]methoxy]-6,8-dihydro-5H-pyrido[3,4-d]pyrimidin-4-yl]-1-prop-2-enoyl-piperazin-2-yl]acetonitrile]",6.00 to 10.00
25,"C=CC(=O)N1CCN(c2nc(OC[C@@H]3CCCN3C)nc3c2CCN(c2cncc4ccccc24)C3)CC1CC#N (stereo partly drawn) [Example 260, 2-[4-[7-(4-isoquinolyl)-2-[[(2S)-1-methylpyrrolidin-2-yl]methoxy]-6,8-dihydro-5H-pyrido[3,4-d]pyrimidin-4-yl]-1-prop-2-enoyl-piperazin-2-yl]acetonitrile]",6.00 to 10.00
26,"C=C(C)C(=O)N1CCN(c2nc(OC[C@@H]3CCCN3C)nc3c2CCN(c2cccc4ccccc24)C3)CC1CC#N (stereo partly drawn) [Example 261, 2-[1-(2-methylprop-2-enoyl)-4-[2-[[(2S)-1-methylpyrrolidin-2-yl]methoxy]-7-(1-naphthyl)-6,8-dihydro-5H-pyrido[3,4-d]pyrimidin-4-yl]piperazin-2-yl]acetonitrile]",< 6.00
27,"C=CC(=O)N1CCN(c2nc(OC[C@@H]3CCCN3C)nc3c2CCN(c2cccc4cnccc24)C3)CC1CC#N (stereo partly drawn) [Example 262, 2-[4-[7-(5-isoquinolyl)-2-[[(2S)-1-methylpyrrolidin-2-yl]methoxy]-6,8-dihydro-5H-pyrido[3,4-d]pyrimidin-4-yl]-1-prop-2-enoyl-piperazin-2-yl]acetonitrile]",< 6.00
28,"C/C=C/C(=O)N1CCN(c2nc(OC[C@@H]3CCCN3C)nc3c2CCN(c2cccc4ccccc24)C3)CC1CC#N (stereo partly drawn) [Example 263, 2-[1-[(E)-but-2-enoyl]-4-[2-[[(2S)-1-methylpyrrolidin-2-yl]methoxy]-7-(1-naphthyl)-6,8-dihydro-5H-pyrido[3,4-d]pyrimidin-4-yl]piperazin-2-yl]acetonitrile]",6.00 to 10.00
